Assays:
[1] = refractive index (Na D-line) (dimensionless); xn = mol fraction of the nth substance listed; details: 101.3 kPa, Liquid, Standard Abbe refractometry
[2] = xn = mol fraction of the nth substance listed; details: 101.3 kPa, Liquid; for speed of sound: Frequency=3 MHz, Sing-around technique in a fixed-path interferometer; for mass density: Vibrating tube method

COS(=O)(=O)[O-].Cn1cc[n+](C)c1 [1,3-dimethylimidazolium methylsulfate] + CCCO
Details	mass density, [2] [kg/m3]	refractive index, [1]	speed of sound, [2] [m/s]
298 K, x1 = 0.039	843	1.389	1225
298 K, x1 = 0.208	995	1.413	1348
298 K, x1 = 0.382	1107	1.434	1481
298 K, x1 = 0.561	1193	1.452	1605
298 K, x1 = 0.702	1246	1.464	1684
298 K, x1 = 0.912	1307	1.477	1773
298 K, x1 = 1	1329	1.483	1811
303 K, x1 = 0.039	839	1.387	1208
303 K, x1 = 0.208	989	1.41	1332
303 K, x1 = 0.382	1100	1.432	1465
303 K, x1 = 0.561	1186	1.45	1590
303 K, x1 = 0.702	1239	1.461	1670
303 K, x1 = 0.912	1301	1.476	1760
303 K, x1 = 1	1322	1.481	1799
308 K, x1 = 0.039	834	1.385	1191
308 K, x1 = 0.208	984	1.408	1316
308 K, x1 = 0.382	1095	1.429	1450
308 K, x1 = 0.561	1181	1.447	1575
308 K, x1 = 0.702	1234	1.459	1656
308 K, x1 = 0.912	1297	1.474	1747
308 K, x1 = 1	1319	1.48	1787
313 K, x1 = 0.039	830	1.382	1175
313 K, x1 = 0.208	979	1.404	1300
313 K, x1 = 0.382	1090	1.426	1434
313 K, x1 = 0.561	1176	1.444	1561
313 K, x1 = 0.702	1229	1.456	1642
313 K, x1 = 0.912	1293	1.472	1734
313 K, x1 = 1	1315	1.479	1775

CCn1cc[n+](C)c1.COS(=O)(=O)[O-] [1-ethyl-3-methylimidazolium methylsulfate] + CCCCCO
Details	mass density, [2] [kg/m3]	refractive index, [1]	speed of sound, [2] [m/s]
298 K, x1 = 0.05	849	1.413	1291
298 K, x1 = 0.284	999	1.435	1425
298 K, x1 = 0.459	1089	1.448	1527
298 K, x1 = 0.613	1157	1.458	1603
298 K, x1 = 0.768	1216	1.468	1662
298 K, x1 = 0.922	1268	1.476	1721
298 K, x1 = 1	1292	1.48	1762
303 K, x1 = 0.05	845	1.412	1274
303 K, x1 = 0.284	994	1.434	1409
303 K, x1 = 0.459	1085	1.447	1511
303 K, x1 = 0.613	1153	1.457	1588
303 K, x1 = 0.768	1212	1.466	1648
303 K, x1 = 0.922	1265	1.475	1708
303 K, x1 = 1	1289	1.479	1750
308 K, x1 = 0.05	841	1.411	1258
308 K, x1 = 0.284	990	1.432	1393
308 K, x1 = 0.459	1081	1.445	1496
308 K, x1 = 0.613	1149	1.455	1573
308 K, x1 = 0.768	1208	1.465	1634
308 K, x1 = 0.922	1261	1.473	1695
308 K, x1 = 1	1285	1.478	1739
313 K, x1 = 0.05	837	1.409	1241
313 K, x1 = 0.284	986	1.43	1377
313 K, x1 = 0.459	1077	1.443	1480
313 K, x1 = 0.613	1145	1.453	1559
313 K, x1 = 0.768	1205	1.463	1620
313 K, x1 = 0.922	1258	1.472	1682
313 K, x1 = 1	1282	1.476	1727

Source: the NIST ThermoML archive (doi:10.1016/j.jct.2017.02.022)
